Numbers after ± are expanded uncertainties.
Assays:
[1] = Liquid; for viscosity: Concentric cylinders viscometry; for mass density: Vibrating tube method
[2] = xn = mol fraction of the nth substance listed; conditions: 100 kPa, Liquid, Concentric cylinders viscometry, x1 = 1
[3] = molar heat capacity at constant pressure; conditions: Liquid, Flow calorimetry

CCCCO [butan-1-ol]
[1], 100 kPa
Conditions	viscosity [mPa·s]
293.15 K	2.953 ± 0.062
303.15 K	2.263 ± 0.048
313.15 K	1.769 ± 0.038

CCCCO [butan-1-ol] + C=CCCCC
[2]
Conditions	viscosity [mPa·s]
293.15 K	2.953 ± 0.062
303.15 K	2.263 ± 0.048
313.15 K	1.769 ± 0.038

C=CCCCC [hex-1-ene]
Conditions	mass density [kg/m3]	molar heat capacity at constant pressure [J/K/mol]	viscosity [mPa·s]
[1], 273.15 K, 100 kPa	691.5 ± 0.7	–	–
[1], 273.15 K, 1000 kPa	692.1 ± 0.7	–	–
[1], 273.15 K, 2000 kPa	693 ± 0.7	–	–
[1], 273.15 K, 5000 kPa	695.8 ± 0.7	–	–
[1], 273.15 K, 10000 kPa	700 ± 0.8	–	–
[1], 273.15 K, 15000 kPa	704 ± 0.8	–	–
[1], 273.15 K, 20000 kPa	707.8 ± 0.8	–	–
[1], 273.15 K, 30000 kPa	715 ± 0.8	–	–
[1], 273.15 K, 40000 kPa	721.6 ± 0.9	–	–
[1], 273.15 K, 50000 kPa	727.6 ± 0.9	–	–
[1], 273.15 K, 60000 kPa	733.2 ± 1	–	–
[1], 273.15 K, 70000 kPa	738.7 ± 1	–	–
[1], 293.15 K, 100 kPa	672.8 ± 0.7	–	0.28 ± 0.007
[1], 293.15 K, 1000 kPa	673.8 ± 0.7	–	–
[1], 293.15 K, 2000 kPa	674.9 ± 0.7	–	–
[1], 293.15 K, 5000 kPa	678 ± 0.7	–	–
[1], 293.15 K, 10000 kPa	682.9 ± 0.8	–	–
[1], 293.15 K, 15000 kPa	687.5 ± 0.8	–	–
[1], 293.15 K, 20000 kPa	691.8 ± 0.8	–	–
[1], 293.15 K, 30000 kPa	699.8 ± 0.8	–	–
[1], 293.15 K, 40000 kPa	707 ± 0.9	–	–
[1], 293.15 K, 50000 kPa	713.7 ± 1	–	–
[1], 293.15 K, 60000 kPa	719.9 ± 1	–	–
[1], 293.15 K, 70000 kPa	725.8 ± 1.1	–	–
[1], 303.15 K, 100 kPa	–	–	0.257 ± 0.007
[1], 313.15 K, 100 kPa	653.8 ± 0.7	–	0.236 ± 0.006
[1], 313.15 K, 1000 kPa	654.9 ± 0.7	–	–
[1], 313.15 K, 2000 kPa	656.2 ± 0.7	–	–
[1], 313.15 K, 5000 kPa	659.9 ± 0.7	–	–
[1], 313.15 K, 10000 kPa	665.5 ± 0.8	–	–
[1], 313.15 K, 15000 kPa	670.8 ± 0.8	–	–
[1], 313.15 K, 20000 kPa	675.7 ± 0.8	–	–
[1], 313.15 K, 30000 kPa	684.6 ± 0.9	–	–
[1], 313.15 K, 40000 kPa	692.6 ± 0.9	–	–
[1], 313.15 K, 50000 kPa	699.9 ± 1	–	–
[1], 313.15 K, 60000 kPa	706.9 ± 1	–	–
[1], 313.15 K, 70000 kPa	713 ± 1.1	–	–
[1], 333.15 K, 100 kPa	634 ± 0.7	–	–
[1], 333.15 K, 1000 kPa	635.4 ± 0.7	–	–
[1], 333.15 K, 2000 kPa	636.9 ± 0.7	–	–
[1], 333.15 K, 5000 kPa	641.3 ± 0.7	–	–
[1], 333.15 K, 10000 kPa	647.8 ± 0.8	–	–
[1], 333.15 K, 15000 kPa	653.9 ± 0.8	–	–
[1], 333.15 K, 20000 kPa	659.5 ± 0.8	–	–
[1], 333.15 K, 30000 kPa	669.5 ± 0.9	–	–
[1], 333.15 K, 40000 kPa	678.4 ± 0.9	–	–
[1], 333.15 K, 50000 kPa	686.3 ± 1	–	–
[1], 333.15 K, 60000 kPa	693.7 ± 1.1	–	–
[1], 333.15 K, 70000 kPa	700.5 ± 1.1	–	–
[3], 293.15 K, 100 kPa	–	179.2 ± 1.1	–
[3], 293.15 K, 5000 kPa	–	174.9 ± 1.1	–
[3], 293.15 K, 10000 kPa	–	172.7 ± 1.1	–
[3], 293.15 K, 15000 kPa	–	169.9 ± 1.1	–
[3], 293.15 K, 20000 kPa	–	168.1 ± 1	–
[3], 293.15 K, 25000 kPa	–	165.7 ± 1	–
[3], 313.15 K, 100 kPa	–	188.8 ± 1.2	–
[3], 313.15 K, 5000 kPa	–	185.9 ± 1.1	–
[3], 313.15 K, 10000 kPa	–	183.1 ± 1.1	–
[3], 313.15 K, 15000 kPa	–	181.6 ± 1.1	–
[3], 313.15 K, 20000 kPa	–	179.6 ± 1.1	–
[3], 313.15 K, 25000 kPa	–	177.2 ± 1.1	–

Source: the NIST ThermoML archive (doi:10.1021/je301301j)
